Here are results for 3 molecules from patent US10113968B2, “Specific detection and quantification of cardiolipin and isolated mitochondria by positively charged AIE fluorogens and method of manufacturing thereof” (priority 2013, dated 2018).

The test system of one series is pUC 18 DNA, 2686 bp. In words: Fluorescence of TTAPE-Me in the presence of plasmid DNA. To be noted: wide range of DNA concentrations; [dye]=10 μM; λex=350 nm. The method, then:
(TTAPE-Me with CL-containing LUVs is shown for comparison) [dye]=10 μM; λex=350 nm.
On the other hand, one might think that the negatively charged mitochondrial DNA (mtDNA) may interfere with the detection of CL by TTAPE-Me.

The test system of another series is isolated mitochondria. The experiment in a line: Quantification and staining of isolated yeast mitochondria by fluorescence. The arrangement: species or system S. cerevisiae strain YPH 500. To be noted: SEM buffer pH 7.2; [dye]=10 μM; λex=350 nm; emission at 480 nm. The text has this: Individual mitochondria from S. cerevisiae strain YPH 500 have been isolated and calibrated by Biuret test. […] In contrast, time-consuming and intricate procedures are involved when using NAO for the quantification of isolated mitochondria. The isolated mitochondria are fixed by formaldehyde, followed by multiple rinsing, centrifugation and resuspension steps. Further, the signal-to-noise ratio by using NAO is much smaller, likely due to the strong background of NAO in solution.

The nature of series [1]: Fluorescence response to CL-containing and CL-free all-component LUVs. The conditions noted are these: [dye]=10 μM. The method, then: (§1) Emission spectra of (C) TTAPE-Me and (D) NAO with CL-containing and CL-free all-component vesicles are shown. (E) Bar chart of the change in fluorescence intensity shown in panels C and D (red: CL-containing vesicles, blue: CL-free vesicles). [dye]=10 μM; [lipid]total=22 μM; for TTAPE-Me: λex=350 nm and λem=480 nm; for NAO: λex=499 nm and λem=530 nm.
Meanwhile, to mimic the mitochondrial membranes, CL-containing and CL-free all-component LUVs were prepared. The CL-containing and CL-free all-component LUVs were composed by the mixture of all the above mentioned lipids at their physiological ratios (FIG. 9A-9B). […] With the CL-containing LUVs, the greenish-blue fluorescence is enhanced by over 3-fold (FIGS. 7C & E). Parallel experiments were conducted with NAO as the probe. NAO is a turn-off sensor whose fluorescence is decreased in the presence of CL (FIG. 7D). However, CL is not the only lipid that induces the decrease of NAO signals—other lipids such as DPPE, PI, or DOPS, can also induce the decrease of NAO signals to a large extent (FIG. 7B).

A short description of series [2]: Fluorescence response to vesicles of different single mitochondrial lipids. The conditions noted are these: 20% TOCL, 100% DOPC, 40% DPPE, 2% soy PI, 1% DOPS, 2% SM, rest DOPC; [dye]=10 μM; [lipid]total=22 μM. The method, then:
as §1
To further evaluate the specificity of TTAPE-Me towards CL, the response of TTAPE-Me to other major lipids found on mitochondrial membranes was examined. The other major lipids evaluated were 1,2-dipalmitoleoyl-sn-glycero-3-phosphoethanolamine (DPPE):
Six different types of LUVs were fabricated and were composed of each of the above lipids and TOCL and DOPC at the exact percentage as mitochondrial membrane, with the remaining percentage of each type of LUV filled by DOPC.
While DOPS and PI are also negatively charged, they carry only one charge per molecule and share only 1% and 2% of the total mitochondrial membrane lipids, respectively (CL for ˜20%).

Series [3] is described as follows: Isothermal titration calorimetry (ITC) of CL-containing vesicles with TTAPE-Me. In kind it is binding. The conditions noted are these: 25° C., CL-containing vesicles TOCL/DOPC 1:1, curve fitting, read-out: dissociation constant. The method, then: [dye]=10 μM; [lipid]total=22 μM; λex=350 nm. (B) Job plot for determination of the binding stoichiometry of TTAPE-Me to CL-containing vesicles. The total concentration of TTAPE-Me and CL is kept at 20 μM. (C) calorimetric curves for titration of CL-containing vesicles with serial injections of TTAPE-Me at 25° C. (D) Binding isotherm as a function of [TTAPE-Me]/[lipid]total molar ratio. CL-containing vesicles are composed of TOCL and DOPC (1:1 molar ratio).
According to the AIE principle, TTAPE-Me is only fluorescent when bound, and thus the fluorescence can report the binding of TTAPE-Me to CL-containing vesicles. The emission intensity varying ratios of TTAPE-Me to CL-containing LUVs is then recorded and correlated to a Job plot (FIG. 5B). The plot has a peak at ˜0.67, corresponding to a 2:1 binding ratio for TOCL to TTAPE-Me. The binding ratio perfectly matches the charge ratio, providing further support that the binding of TTAPE-Me towards CL is primarily driven by electrostatic interaction. […] The binding curve was generated by integration of the area of each injection peak followed by the subtraction of the dilution heat of dye molecules (FIG. 5D).

A short description of series [4]: Fluorescence response of dye to CL-containing (TOCL/DOPC) and CL-free (DOPC) LUVs. The conditions noted are these: for emission with CL-containing vesicles: TOCL/DOPC 1:1, 25 mM HEPES pH 7.4, λex=350 nm. The method, then: CL-containing vesicles are composed of TOCL/DOPC (1:1 molar ratio), and CL-free vesicles are composed of pure DOPC, respectively, in a 25 mM HEPES buffer at pH 7.4. [dye]=10 μM; [lipid]total=22 μM; λex=350 nm.
FIG. 3A is a plot of the fluorescence enhancement (I/I0−1) of TTAPE-Me at 480 nm with CL-containing and CL-free vesicles.
FIG. 3B is the linear region of the I/I0−1 value versus CL concentration. [dye]=10 μM; λex=350 nm.
FIG. 4B is a plot of the fluorescence enhancement at 480 nm versus CL content. [dye]=10 μM; [lipid]total=22 μM; λex=350 nm.
CL-containing and CL-free vesicles are composed of TOCL/DOPC (1:1 molar ratio) and pure DOPC, respectively, in a 25 mM HEPES buffer at pH 7.4. [dye]=10 μM; [lipid]total=22 μM; λex=350 nm.
The fluorescence enhancement (I/I0−1) of TTAPE-Me at 480 nm is in a linear fashion in the CL concentration of 0-10 μM (FIG. 3B), which lies in the physiological range of CL in mitochondrial membrane. Linear detection of CL can also be obtained with the varying content of TOCL (2-50% TOCL) in the vesicles (FIG. 4A-4B). The results imply that flexible TTAPE-Me to CL ratio is allowed in the detection and quantification of CL. In contrast, conventional NAO requires strict 2:1 ratio of NAO/CL for quantitative measurement. Moreover, the detection of CL can be done immediately upon mixing the vesicles with the probe without any extra treatment.
To determine whether TTAPE-Me can specifically detect CL, two types of large unilamellar vesicles (LUVs) 100-200 nm in diameter were prepared (FIG. 2A-2B). The CL-free vesicles were prepared by pure 1,2-dioleoyl-sn-glycero-[…] (DOPC), which is the most abundant phospholipid in eukaryotic membranes. CL-containing vesicles were fabricated by the mixture of 1,1′,2,2′-tetraoleoyl cardiolipin (TOCL) and DOPC, in which the zwitterionic DOPC is used to stabilize the vesicles.

The conditions of series [5]: background statement; cited from earlier work.
[6] abbreviates: [dye]=10 μM, [lipid]total=22 μM.

With `C[N+](C)(C)CCOc1ccc(C(=C(c2ccc(OCC[N+](C)(C)C)cc2)c2ccc(OCC[N+](C)(C)C)cc2)c2ccc(OCC[N+](C)(C)C)cc2)cc1.[Br-].[Br-].[Br-].[Br-]` [TTAPE-Me, 1,1,2,2-tetrakis[4-(2-trimethylammonio-ethoxy)phenyl]ethene tetrabromide], in the series with pUC 18 DNA, 2686 bp, the “fluorescence in the presence of plasmids” value is “no fluorescence enhancement”. Besides, the “relation of fluorescence intensity to mitochondria concentration” value in the series on isolated mitochondria is reported as “linear relationship”. The “emission spectrum with CL-free all-component LUVs” value in series [1] ([lipid]total=22 μM) is “remains identical to that of the free dye in buffer”. In addition, in series [1] ([lipid]total=22 μM, λex=350 nm, λem=480 nm), the “fluorescence enhancement with CL-containing all-component LUVs” value is on record as “over 3 fold”. Moreover, in series [2], the “fluorescence response to vesicles of different lipid contents (selectivity)” value was “selectively turned on with the TOCL vesicles”. For the same molecule, in series [3], the Kd was 2080 nM. Besides, in series [4] (setting [6]), the “emission with CL-containing vesicles” value was “turned on” and the “fluorescence with CL-containing vesicles on increase of NaCl concentration” value is “diminishes”. For the same molecule, in series [4] (pure DOPC vesicles, increasing total lipid concentration), the “emission with CL-free vesicles” value is given as “remains rather weak”.

Turning to `O=S(=O)([O-])CCCOc1ccc(/C(=C(\c2ccccc2)c2ccc(OCCCS(=O)(=O)[O-])cc2)c2ccccc2)cc1.[Na+].[Na+]` [BSPOTPE, reference compound], the “emission with CL-containing vesicles” value in series [4] (setting [6]) is reported as “no remarkable fluorescence enhancement”.

In the case of `CCCCCCCCC[n+]1c2cc(N(C)C)ccc2cc2ccc(N(C)C)cc21.[Br-]` [NAO, 10-N-nonyl acridine orange, reference compound], the “fluorescence in the presence of CL (all-component LUVs)” value in series [1] (λex=499 nm, λem=530 nm) is listed as “decreased”. The “fluorescence response to vesicles of different lipid contents (selectivity)” value in series [2] is listed as “poor selectivity”. The water-solubility result in series [5] is recorded as “poor water-solubility”.
